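Growth conditions: 96-well plates. Treatment: test compound, 48 hours, 5 concentrations. Analysis: linear interpolation between bracketing concentrations; unreached endpoints set to highest concentration. Abbreviation: GI50, concentration required for 50% inhibition of growth.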 The source made the active and inactive calls. Cut-off read from the data, not from the text of the source: active = GI50 up to about 1.1 µM and inactive = higher.
How the values were obtained:
Test in all cases: inhibition of tumour cell growth, NCI panel, 48 h
ACHN = tested on: ACHN
HOP-92 = tested on: HOP-92
HCT-116 = tested on: HCT-116
MDA-MB-231 = tested on: MDA-MB-231
OVCAR-5 = tested on: OVCAR-5
SF-539 = tested on: SF-539
Malme-3M = tested on: Malme-3M
Hs-578T = tested on: Hs-578T
CAKI-1 = tested on: CAKI-1
SK-MEL-28 = tested on: SK-MEL-28
786-0 = tested on: 786-0
UO-31 = tested on: UO-31
HL-60 = tested on: HL-60
U-251 = tested on: U-251
EKVX = tested on: EKVX
UACC-257 = tested on: UACC-257
SW-620 = tested on: SW-620
PC-3 = tested on: PC-3
OVCAR-8 = tested on: OVCAR-8

Measured: GI50

CCOC(=O)c1nc2ccccc2nc1Nc1cc(OC)c(OC)c(OC)c1
inactive: ACHN > 100 µM | HOP-92 > 100 µM | HCT-116 > 100 µM | MDA-MB-231 > 100 µM | OVCAR-5 > 100 µM | SF-539 > 100 µM | Malme-3M > 100 µM | Hs-578T 92.9 µM | CAKI-1 > 100 µM | SK-MEL-28 > 100 µM | 786-0 > 100 µM | UO-31 > 100 µM | HL-60 > 100 µM | U-251 > 100 µM | EKVX > 100 µM

O=S(=O)(NC1CCCCC1)c1ccc2c(c1)OCCOCCOCCOCCO2
inactive: ACHN > 100 µM | HCT-116 > 100 µM | UACC-257 > 100 µM | MDA-MB-231 > 100 µM | SW-620 > 100 µM | SF-539 > 100 µM | Malme-3M > 100 µM | Hs-578T > 100 µM | PC-3 > 100 µM | CAKI-1 > 100 µM | SK-MEL-28 > 100 µM | 786-0 > 100 µM | UO-31 > 100 µM | HL-60 > 100 µM | OVCAR-8 > 100 µM | EKVX > 100 µM

O=C1CCC2(CC1)Cc1ccccc1C2O (stereo not drawn)
inactive: ACHN > 100 µM | HCT-116 > 100 µM | UACC-257 > 100 µM | MDA-MB-231 > 100 µM | SW-620 > 100 µM | OVCAR-5 > 100 µM | SF-539 > 100 µM | Malme-3M > 100 µM | Hs-578T > 100 µM | PC-3 > 100 µM | CAKI-1 > 100 µM | SK-MEL-28 > 100 µM | 786-0 > 100 µM | UO-31 > 100 µM | HL-60 > 100 µM | OVCAR-8 > 100 µM | U-251 > 100 µM | EKVX > 100 µM

COc1ccc(N2C(=O)/C(=C/c3ccc(N(CCC#N)CCC#N)cc3)N=C2c2ccccc2)c(OC)c1
inactive: ACHN > 100 µM | HOP-92 31.1 µM | HCT-116 69.2 µM | UACC-257 > 100 µM | MDA-MB-231 > 100 µM | SW-620 > 100 µM | OVCAR-5 > 100 µM | SF-539 40.4 µM | Malme-3M > 100 µM | Hs-578T 50.6 µM | CAKI-1 > 100 µM | SK-MEL-28 > 100 µM | 786-0 > 100 µM | UO-31 > 100 µM | HL-60 30.3 µM | OVCAR-8 28.5 µM | U-251 48.2 µM | EKVX > 100 µM

CN(C)CCNC(=O)c1cccc2c(NC(CCCNC(=N)N)C(=O)O)c3ccccc3[n+](C)c12 (stereo not drawn)
inactive: ACHN 68.7 µM | HCT-116 45.6 µM | UACC-257 > 100 µM | MDA-MB-231 37.1 µM | SW-620 53.5 µM | OVCAR-5 > 100 µM | SF-539 83.8 µM | Malme-3M 86.7 µM | Hs-578T > 100 µM | PC-3 79.8 µM | SK-MEL-28 > 100 µM | 786-0 71 µM | UO-31 > 100 µM | OVCAR-8 92 µM | U-251 > 100 µM | EKVX > 100 µM
